The record followed here is ChEMBL document CHEMBL5465560, “Selectivity Literature for EUbOPEN Chemogenomic Library” (2024).

Test [1] concerns the target Calcium/calmodulin-dependent protein kinase type II subunit alpha (Homo sapiens, UniProt Q9UQM7). Briefly: Selectivity interaction (Kinase panel (Z-LYTE Assay)) EUB0001632a CAMK2A. Particulars: at 10 µM.
Test [2] concerns the target Serine/threonine-protein kinase SIK2 (Homo sapiens) (UniProt Q9H0K1). Put plainly: Selectivity interaction (Kinase panel (Z-LYTE Assay)) EUB0001632a SIK2. Particulars: at 10 µM.
In test [3] the target is Mitogen-activated protein kinase 6 (Homo sapiens) (UniProt Q16659). Particulars: at 10 µM.
The target of test [4] is T1, Ephrin type-A receptor 1 (Homo sapiens) (UniProt P21709).
T1 sequence (whole entry): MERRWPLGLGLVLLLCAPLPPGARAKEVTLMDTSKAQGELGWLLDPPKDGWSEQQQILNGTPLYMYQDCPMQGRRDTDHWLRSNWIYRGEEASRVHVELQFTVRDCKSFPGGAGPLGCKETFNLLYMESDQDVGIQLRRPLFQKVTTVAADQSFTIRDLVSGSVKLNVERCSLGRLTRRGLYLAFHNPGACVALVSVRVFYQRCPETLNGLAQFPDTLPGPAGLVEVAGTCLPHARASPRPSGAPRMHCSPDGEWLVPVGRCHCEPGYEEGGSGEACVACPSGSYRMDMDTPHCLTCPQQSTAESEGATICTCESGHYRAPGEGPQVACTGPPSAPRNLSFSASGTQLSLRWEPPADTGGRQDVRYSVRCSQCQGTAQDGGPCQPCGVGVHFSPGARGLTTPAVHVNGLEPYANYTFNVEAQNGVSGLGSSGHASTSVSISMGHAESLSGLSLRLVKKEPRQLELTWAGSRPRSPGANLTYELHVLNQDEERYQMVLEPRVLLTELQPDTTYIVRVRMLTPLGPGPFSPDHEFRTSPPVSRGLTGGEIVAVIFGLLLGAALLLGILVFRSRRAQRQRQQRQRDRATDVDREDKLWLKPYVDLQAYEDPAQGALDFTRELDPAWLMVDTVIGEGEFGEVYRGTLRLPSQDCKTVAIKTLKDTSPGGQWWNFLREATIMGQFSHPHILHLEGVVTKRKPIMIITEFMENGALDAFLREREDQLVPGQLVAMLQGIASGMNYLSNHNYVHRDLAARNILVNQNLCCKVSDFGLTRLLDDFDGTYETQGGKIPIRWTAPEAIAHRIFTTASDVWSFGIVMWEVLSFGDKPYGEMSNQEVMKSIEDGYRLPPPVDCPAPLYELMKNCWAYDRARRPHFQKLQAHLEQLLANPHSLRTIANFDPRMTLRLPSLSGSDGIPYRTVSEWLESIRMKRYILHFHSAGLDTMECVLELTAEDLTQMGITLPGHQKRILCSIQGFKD
Put plainly: Selectivity interaction (KinomeScan (DiscoverX)) EUB0000655a EPHA1. Particulars: at 10 µM.

Test [5] deals with 5'-AMP-activated protein kinase catalytic subunit alpha-1 (Homo sapiens, UniProt Q13131). Briefly: Selectivity interaction (KinomeScan (DiscoverX)) EUB0000311b PRKAA1. Particulars: at 1 µM.
Test [6] has as its target Serine/threonine-protein kinase 38-like (Homo sapiens) (UniProt Q9Y2H1). Put plainly: Selectivity interaction (ActivX KiNativ screen (ex vivo kinase selectivity in human PBMCs)) EUB0001619a STK38L. Type of test: cell-based. To be noted: PBMC, at 1 µM.
The target of test [7] is 5'-AMP-activated protein kinase catalytic subunit alpha-2 (Homo sapiens) (UniProt P54646). To be noted: at 10 µM.
Test [8] has as its target T2, Mitogen-activated protein kinase 15 (Homo sapiens) (UniProt Q8TD08).
T2 sequence (whole entry): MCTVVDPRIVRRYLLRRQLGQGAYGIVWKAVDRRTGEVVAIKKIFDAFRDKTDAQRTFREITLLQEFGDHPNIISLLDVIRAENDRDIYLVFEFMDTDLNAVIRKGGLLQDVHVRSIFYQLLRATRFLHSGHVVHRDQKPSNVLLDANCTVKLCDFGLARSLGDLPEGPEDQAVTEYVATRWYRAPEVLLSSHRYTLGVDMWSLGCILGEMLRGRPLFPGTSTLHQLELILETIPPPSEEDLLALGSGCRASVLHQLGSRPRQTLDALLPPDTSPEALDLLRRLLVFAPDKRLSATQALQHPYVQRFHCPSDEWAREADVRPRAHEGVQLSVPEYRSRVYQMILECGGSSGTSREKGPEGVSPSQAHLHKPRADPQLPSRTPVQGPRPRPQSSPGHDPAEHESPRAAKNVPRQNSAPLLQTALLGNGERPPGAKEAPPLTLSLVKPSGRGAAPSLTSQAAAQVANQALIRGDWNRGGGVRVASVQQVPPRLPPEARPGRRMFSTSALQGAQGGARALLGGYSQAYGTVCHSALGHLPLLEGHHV
Particulars: at 10 µM.

The target in test [9] is MAP kinase-activated protein kinase 2 (Homo sapiens, UniProt P49137). Put plainly: Selectivity interaction (KinomeScan (DiscoverX)) EUB0001049a MAPKAPK2. To be noted: at 1 µM.
In test [10] the target is Ribosomal protein S6 kinase alpha-4 (Homo sapiens) (UniProt O75676). Briefly: Selectivity interaction (KinomeScan (DiscoverX)) EUB0000045b RPS6KA4. To be noted: at 1 µM.
Test [11] addresses T3, Mitogen-activated protein kinase kinase kinase 3 (Homo sapiens) (UniProt Q99759).
T3 sequence (whole entry): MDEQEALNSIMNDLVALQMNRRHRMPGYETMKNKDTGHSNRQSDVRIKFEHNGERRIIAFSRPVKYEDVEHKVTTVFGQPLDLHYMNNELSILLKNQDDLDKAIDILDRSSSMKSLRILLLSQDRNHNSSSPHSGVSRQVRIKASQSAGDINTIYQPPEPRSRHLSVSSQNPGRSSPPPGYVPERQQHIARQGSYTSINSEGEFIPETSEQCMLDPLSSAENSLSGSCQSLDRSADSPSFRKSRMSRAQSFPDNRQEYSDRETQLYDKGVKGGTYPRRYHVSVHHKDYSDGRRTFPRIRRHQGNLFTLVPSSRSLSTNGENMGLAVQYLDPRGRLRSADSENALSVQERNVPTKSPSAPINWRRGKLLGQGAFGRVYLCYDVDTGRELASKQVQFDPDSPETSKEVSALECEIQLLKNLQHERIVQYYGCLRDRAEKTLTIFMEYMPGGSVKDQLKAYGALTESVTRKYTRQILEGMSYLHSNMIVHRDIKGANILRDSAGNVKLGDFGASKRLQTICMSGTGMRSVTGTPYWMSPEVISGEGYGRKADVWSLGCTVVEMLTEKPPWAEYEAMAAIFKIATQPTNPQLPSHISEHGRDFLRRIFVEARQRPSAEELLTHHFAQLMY
Put plainly: Selectivity interaction (KinomeScan (DiscoverX)) EUB0000618a MAP3K3. Particulars: at 10 µM.

5'-AMP-activated protein kinase catalytic subunit alpha-2 (Homo sapiens), sequence (P54646 whole entry, looked up): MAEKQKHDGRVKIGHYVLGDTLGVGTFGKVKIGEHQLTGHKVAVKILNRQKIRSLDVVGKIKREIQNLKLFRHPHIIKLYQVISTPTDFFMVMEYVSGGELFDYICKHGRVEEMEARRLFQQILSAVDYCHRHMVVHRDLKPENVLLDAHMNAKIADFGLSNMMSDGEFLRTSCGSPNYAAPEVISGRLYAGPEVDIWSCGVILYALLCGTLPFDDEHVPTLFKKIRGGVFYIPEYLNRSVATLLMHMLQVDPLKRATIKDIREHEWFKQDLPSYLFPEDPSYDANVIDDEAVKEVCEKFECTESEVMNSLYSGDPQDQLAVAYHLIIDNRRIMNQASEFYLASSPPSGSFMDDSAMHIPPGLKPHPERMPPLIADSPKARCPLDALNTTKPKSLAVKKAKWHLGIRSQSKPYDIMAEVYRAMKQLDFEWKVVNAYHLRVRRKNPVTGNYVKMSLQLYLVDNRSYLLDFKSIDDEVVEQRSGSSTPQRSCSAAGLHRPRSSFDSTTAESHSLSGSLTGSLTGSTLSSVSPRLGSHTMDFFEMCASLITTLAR
MAP kinase-activated protein kinase 2, sequence (P49137 whole entry, looked up): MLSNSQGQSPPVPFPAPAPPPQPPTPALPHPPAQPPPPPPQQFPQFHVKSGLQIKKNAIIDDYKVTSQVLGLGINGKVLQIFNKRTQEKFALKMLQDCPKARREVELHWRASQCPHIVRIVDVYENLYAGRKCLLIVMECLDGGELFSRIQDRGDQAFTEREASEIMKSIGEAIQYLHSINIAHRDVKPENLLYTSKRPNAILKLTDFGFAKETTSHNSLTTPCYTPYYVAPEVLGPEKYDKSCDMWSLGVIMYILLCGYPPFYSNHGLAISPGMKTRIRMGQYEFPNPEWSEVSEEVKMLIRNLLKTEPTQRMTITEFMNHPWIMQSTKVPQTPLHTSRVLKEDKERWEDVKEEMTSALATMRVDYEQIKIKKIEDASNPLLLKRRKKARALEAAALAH
Calcium/calmodulin-dependent protein kinase type II subunit alpha, sequence (Q9UQM7 whole entry): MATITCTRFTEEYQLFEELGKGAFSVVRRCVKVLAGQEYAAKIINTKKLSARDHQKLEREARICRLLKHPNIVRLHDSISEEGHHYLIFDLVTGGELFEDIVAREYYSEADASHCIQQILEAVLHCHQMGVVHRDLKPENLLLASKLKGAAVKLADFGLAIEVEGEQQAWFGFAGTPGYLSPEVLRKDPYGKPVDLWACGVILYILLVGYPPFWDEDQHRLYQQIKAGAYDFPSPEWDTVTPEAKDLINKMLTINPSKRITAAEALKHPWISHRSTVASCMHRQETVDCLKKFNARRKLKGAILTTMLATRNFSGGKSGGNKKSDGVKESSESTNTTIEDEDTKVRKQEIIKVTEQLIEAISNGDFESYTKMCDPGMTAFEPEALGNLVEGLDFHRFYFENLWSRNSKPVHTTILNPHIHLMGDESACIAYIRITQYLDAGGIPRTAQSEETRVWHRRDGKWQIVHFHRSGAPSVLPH
Serine/threonine-protein kinase SIK2 (Homo sapiens), sequence (Q9H0K1 whole entry, looked up): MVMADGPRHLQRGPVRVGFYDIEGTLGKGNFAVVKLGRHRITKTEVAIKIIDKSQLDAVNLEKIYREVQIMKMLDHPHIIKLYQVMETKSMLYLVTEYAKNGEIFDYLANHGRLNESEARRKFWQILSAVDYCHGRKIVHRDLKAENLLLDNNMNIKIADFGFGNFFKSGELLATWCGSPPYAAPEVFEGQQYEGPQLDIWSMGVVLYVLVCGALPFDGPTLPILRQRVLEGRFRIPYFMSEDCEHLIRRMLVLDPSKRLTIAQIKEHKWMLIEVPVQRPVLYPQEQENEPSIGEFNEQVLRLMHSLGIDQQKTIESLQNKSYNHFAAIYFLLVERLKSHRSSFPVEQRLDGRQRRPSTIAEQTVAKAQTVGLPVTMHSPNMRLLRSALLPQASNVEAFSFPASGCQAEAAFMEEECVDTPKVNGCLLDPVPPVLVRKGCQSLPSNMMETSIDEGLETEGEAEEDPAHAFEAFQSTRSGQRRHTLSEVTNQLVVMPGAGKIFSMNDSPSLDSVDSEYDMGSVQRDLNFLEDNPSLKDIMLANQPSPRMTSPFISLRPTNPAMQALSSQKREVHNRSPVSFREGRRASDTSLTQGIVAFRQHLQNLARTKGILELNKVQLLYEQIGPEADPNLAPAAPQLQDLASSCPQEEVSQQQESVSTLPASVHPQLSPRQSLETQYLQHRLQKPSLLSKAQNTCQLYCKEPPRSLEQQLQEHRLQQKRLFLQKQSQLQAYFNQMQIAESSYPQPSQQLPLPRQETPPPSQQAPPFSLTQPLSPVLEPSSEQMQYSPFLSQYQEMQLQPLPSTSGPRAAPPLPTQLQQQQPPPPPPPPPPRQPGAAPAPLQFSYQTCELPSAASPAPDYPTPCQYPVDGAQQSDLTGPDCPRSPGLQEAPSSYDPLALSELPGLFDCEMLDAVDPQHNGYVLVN
5'-AMP-activated protein kinase catalytic subunit alpha-1, sequence (Q13131 whole entry, looked up): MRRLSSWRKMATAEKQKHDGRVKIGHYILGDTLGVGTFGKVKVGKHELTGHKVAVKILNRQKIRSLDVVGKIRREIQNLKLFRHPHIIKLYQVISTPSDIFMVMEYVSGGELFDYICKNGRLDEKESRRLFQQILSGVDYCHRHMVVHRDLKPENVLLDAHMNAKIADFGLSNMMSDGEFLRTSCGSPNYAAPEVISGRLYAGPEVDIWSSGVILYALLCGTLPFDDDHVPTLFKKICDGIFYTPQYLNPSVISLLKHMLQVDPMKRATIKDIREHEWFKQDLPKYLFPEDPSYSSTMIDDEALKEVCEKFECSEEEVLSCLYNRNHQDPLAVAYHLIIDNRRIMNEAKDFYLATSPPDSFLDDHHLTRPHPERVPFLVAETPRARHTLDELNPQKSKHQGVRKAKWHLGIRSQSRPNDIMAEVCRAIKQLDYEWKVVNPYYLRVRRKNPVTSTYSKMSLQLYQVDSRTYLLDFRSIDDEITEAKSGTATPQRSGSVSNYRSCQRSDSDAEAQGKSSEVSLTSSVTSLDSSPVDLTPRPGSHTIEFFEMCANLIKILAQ
Ribosomal protein S6 kinase alpha-4 (Homo sapiens), sequence (O75676 whole entry, looked up): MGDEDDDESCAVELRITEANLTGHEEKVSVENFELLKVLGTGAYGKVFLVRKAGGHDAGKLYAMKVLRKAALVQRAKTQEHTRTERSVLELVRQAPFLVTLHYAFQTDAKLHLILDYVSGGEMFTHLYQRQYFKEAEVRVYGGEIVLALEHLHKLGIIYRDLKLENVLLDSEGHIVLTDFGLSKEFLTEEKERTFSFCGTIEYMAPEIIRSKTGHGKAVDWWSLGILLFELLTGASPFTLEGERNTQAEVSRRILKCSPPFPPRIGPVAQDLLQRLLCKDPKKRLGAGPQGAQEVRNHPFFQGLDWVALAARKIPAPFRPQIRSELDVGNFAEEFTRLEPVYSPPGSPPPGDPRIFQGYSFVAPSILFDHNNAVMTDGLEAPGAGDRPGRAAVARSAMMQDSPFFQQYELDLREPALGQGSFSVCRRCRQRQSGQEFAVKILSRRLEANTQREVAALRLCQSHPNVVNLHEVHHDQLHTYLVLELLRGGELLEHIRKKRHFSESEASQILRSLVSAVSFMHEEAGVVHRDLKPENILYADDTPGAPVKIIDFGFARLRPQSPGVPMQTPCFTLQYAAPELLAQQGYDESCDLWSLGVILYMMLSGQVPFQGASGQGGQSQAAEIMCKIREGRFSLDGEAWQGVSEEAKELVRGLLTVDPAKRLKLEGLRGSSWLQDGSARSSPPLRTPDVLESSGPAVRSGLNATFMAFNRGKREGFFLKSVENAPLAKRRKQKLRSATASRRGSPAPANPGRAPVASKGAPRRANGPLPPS
Serine/threonine-protein kinase 38-like (Homo sapiens), sequence (Q9Y2H1 2-464 limits assumed): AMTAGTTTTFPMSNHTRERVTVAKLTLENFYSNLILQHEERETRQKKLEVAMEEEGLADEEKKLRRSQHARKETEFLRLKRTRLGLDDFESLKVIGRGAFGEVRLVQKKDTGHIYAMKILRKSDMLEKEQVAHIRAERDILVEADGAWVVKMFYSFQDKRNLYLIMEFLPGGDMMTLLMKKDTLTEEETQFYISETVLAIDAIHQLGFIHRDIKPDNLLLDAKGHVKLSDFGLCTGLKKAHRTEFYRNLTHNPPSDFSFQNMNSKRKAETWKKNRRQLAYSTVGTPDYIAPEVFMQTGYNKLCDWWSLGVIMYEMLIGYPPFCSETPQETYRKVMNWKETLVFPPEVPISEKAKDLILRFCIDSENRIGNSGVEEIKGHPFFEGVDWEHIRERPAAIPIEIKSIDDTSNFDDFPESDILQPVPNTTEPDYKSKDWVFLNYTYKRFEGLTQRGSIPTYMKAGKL
Mitogen-activated protein kinase 6 (Homo sapiens), sequence (Q16659 whole entry): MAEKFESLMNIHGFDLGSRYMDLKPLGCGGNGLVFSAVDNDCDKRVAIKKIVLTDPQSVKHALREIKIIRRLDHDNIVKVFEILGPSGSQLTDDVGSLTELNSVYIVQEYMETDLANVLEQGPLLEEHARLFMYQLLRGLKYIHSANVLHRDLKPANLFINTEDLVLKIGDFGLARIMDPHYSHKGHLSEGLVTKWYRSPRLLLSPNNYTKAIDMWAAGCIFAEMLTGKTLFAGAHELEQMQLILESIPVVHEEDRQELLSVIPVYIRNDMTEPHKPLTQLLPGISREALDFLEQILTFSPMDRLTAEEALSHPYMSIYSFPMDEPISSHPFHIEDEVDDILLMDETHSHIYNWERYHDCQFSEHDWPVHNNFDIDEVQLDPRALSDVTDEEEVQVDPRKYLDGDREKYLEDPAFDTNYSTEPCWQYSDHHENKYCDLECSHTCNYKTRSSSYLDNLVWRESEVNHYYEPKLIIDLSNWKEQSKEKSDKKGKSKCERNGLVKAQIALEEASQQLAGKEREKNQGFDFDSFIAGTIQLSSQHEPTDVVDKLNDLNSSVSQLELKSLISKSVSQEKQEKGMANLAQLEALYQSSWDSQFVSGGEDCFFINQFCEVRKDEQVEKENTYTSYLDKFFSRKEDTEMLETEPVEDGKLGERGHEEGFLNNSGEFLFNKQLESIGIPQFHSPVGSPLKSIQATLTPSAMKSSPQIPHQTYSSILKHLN

Consider `Cn1cc(-n2cnc3c(NCc4nc5cc(Cl)c(Cl)cc5[nH]4)nc(N4CCOCC4)nc32)cn1`, for which the % of control was -0.947% in test [1] and 5.35% in [2].
For the molecule `Cc1cc([C@@H](C)Nc2ccccc2C(=O)O)c2nc(N3CCOCC3)cc(=O)n2c1` [AZD-6482], the % of control in test [3] came to 100%.
For `CN(C)CCOc1ccc(-c2nc(-c3ccncc3)c(-c3ccc4c(c3)CC/C4=N\O)[nH]2)cc1`, the % of control in [4] turned out to be 91%.
For `CCc1ccccc1C(=O)Nc1n[nH]c2c(C)c(F)c(C3C(C#N)=C(C)N(C)C(C)=C3C#N)cc12` [BAY-3827], in test [5], the % of control was determined as 7.5%.
In test [6], `N#Cc1cccc(-c2c[nH]c3ncnc(N4CCOCC4)c23)c1` came in with a % of inhibition of 3%.
On to `CCN(CC)CCCCNc1ncc2cc(-c3cc(OC)cc(OC)c3)c(NC(=O)NC(C)(C)C)nc2n1`, for which the % of control in [7] and in [8] was 100% in each case.
Turning to `COc1cc(Nc2nc(C)cc(-c3cnn4nc(OC)ccc34)n2)cc(C(F)(F)F)c1`, the % of control in test [9] was determined as 52%.
As to `C=CC(=O)Nc1cc(-n2c(=O)ccc3cnc4ccc(-c5ccc(NS(C)(=O)=O)cc5)cc4c32)ccc1C`, the % of control in [10] was determined as 67%.
On to `O[C@H]1CC[C@H](Nc2ncc3nc(Nc4c(F)cc(F)cc4F)n([C@H]4CCOC4)c3n2)CC1`, for which, in test [11], the % of control was determined as 83%.
